Measurements reported in patent publication US4845080A, “Human calcitonin peptide with salmon calcitonin-like characteristics” (Ciba-Geigy Corporation, priority 1983, dated 1989).

Tests used:
[1] = biological target: antibody serum to synthetic sCT; assay: Radioimmunoassay with antibodies to synthetic sCT, inhibition of [125I]sCT binding; set-up: species or system goat
Method: The concentration of hCT 2 is determined radioimmunologically in a concentration series. 10, 20, 50 and 100 μl, respectively, of the HPLC fractions, which have been aftertreated as described above, are preincubated for 3 days at 4° C. together with 100 μl of antibody serum to synthetic sCT (Sandoz AG, Basle, Switzerland) in an immunoassay buffer with a total volume of 300 μl (immunoassay buffer: 0.05M phosphate, pH 7.5, 10% of human serum containing no detectable amounts of immunoreactive sCT), and, after the addition of 200 μl of assay buffer having 15,000 dpm of [^125 I]sCT (specific activity 600 Ci/mmol), subsequently incubated for a further 3 days at 4° C. The labelling of sCT with ^125 I is performed with Chloramin-T (Eastman Kodak, Rochester, USA) essentially according to the method of W. M. Hunter and F. C.
The above-mentioned antibody serum is obtained as follows: The antibodies are produced in a 25 kg goat after primary immunisation with 200 μg of sCT (see above) as antigen, and reimmunisation with 100 μg of the same antigen 30 days after the primary immunisation. For immunisation, sCT is dissolved in 0.01M acetic acid (1 mg/ml), the solution is mixed with 2 percent by weight of solid aluminium hydroxide (Alhydrogel, Superfos Export Co. a/s Copenhagen, Denmark) and the mixture is suspended in an equal volume of complete Freund's adjuvant (Difco Laboratories, Detroit, Mich., USA). This suspension is produced in an Omnimixer (Sorvall) at 4° C. at the maximum mixing rate. 0.5-1.0 ml of suspension is drawn up into disposable syringes (Primo 1 ml, Asik I/S, Denmark), and administered on each leg subcutaneously in the region of the subaxillary lymph nodes. Ten days after the abovementioned reimmunisation, 50-80 ml of blood containing the desired antibodies against sCT are withdrawn from the jugular vein into heparinised tubes, and the plasma obtained is stored at -20° C. in 3-5 ml portions.
(§1) The quantity of antibodies obtained is estimated by measurement of the binding of the withdrawn plasma to [^125 I] sCT. Antibody-bound and free [^125 I]sCT are separated by means of charcoal coated with dextran, in the main according to the method of V. Herbert, K.-S. Lau, C. W. Gottlieb and S. J. Bleicher [J. Clin. Endocrinol. Metab. 25, 1375-1384 (1965)]. The same method is used for the detection of antibodies in human serum.

[2] = Detection of antibodies able to react with sCT in human serum (binding to [125I]sCT); details: verified with radioimmunoassay
Source text: (c) in the human serum no initiation of the formation of detectable amounts of antibodies which are able to react with sCT, the binding to [^125 I]sCT having a specific activity of 600 Ci/mmol being used for verfying this evidence;
The substance hCT 2 differs from the known hCT in the aforementioned HPLC system by virtue of a clearly different retention time; on the other hand, hCT 2 has a retention time practically identical to that of sCT. In the aforementioned gel system, the elution volume of hCT 2 differs from that of hCT, but is practically identical to that of sCT. These facts indicate that hCT 2 with respect to the amino acid composition, even though not necessarily with respect to the amino acid sequence, is more closely related to sCT than to hCT. With regard to immunology, however, hCT 2 differs greatly from sCT.
as §1

| half maximum inhibition of the binding of [125I]sCT to the antibodies ([1]; antibody final dilution 1:25,000, 15,000 dpm [125I]sCT, 4° C., amount per tube) | concentration at which the antibodies react with sCT compared with hCT, which they do not recognise ([1]; lower concentration for sCT) | half maximum inhibition of the binding of [125I]sCT to the antibodies ([1]; same value given in pmol) | Compound | formation of antibodies in the human serum [2] | amount not giving comparable (half maximum) inhibition of the binding of [125I]sCT to the antibodies ([1]; antibody final dilution 1:25,000) |
| --- | --- | --- | --- | --- | --- |
| about 100 pg | ≤ 10^5 fold | 0.03 pmol | CC(C)C[C@H](NC(=O)[C@H](CCCCN)NC(=O)CNC(=O)[C@H](CC(C)C)NC(=O)[C@@H](NC(=O)[C@@H]1CSSC[C@H](N)C(=O)N[C@@H](CO)C(=O)N[C@@H](CC(N)=O)C(=O)N[C@@H](CC(C)C)C(=O)N[C@@H](CO)C(=O)N[C@@H]([C@@H](C)O)C(=O)N1)C(C)C)C(=O)N[C@@H](CO)C(=O)N[C@@H](CCC(N)=O)C(=O)N[C@@H](CCC(=O)O)C(=O)N[C@@H](CC(C)C)C(=O)N[C@@H](Cc1c[nH]cn1)C(=O)N[C@@H](CCCCN)C(=O)N[C@@H](CC(C)C)C(=O)N[C@@H](CCC(N)=O)C(=O)N[C@H](C(=O)N[C@@H](Cc1ccc(O)cc1)C(=O)N1CCC[C@H]1C(=O)N[C@@H](CCCNC(=N)N)C(=O)N[C@H](C(=O)N[C@@H](CC(N)=O)C(=O)N[C@H](C(=O)NCC(=O)N[C@@H](CO)C(=O)NCC(=O)N[C@H](C(=O)N1CCC[C@H]1C(N)=O)[C@@H](C)O)[C@@H](C)O)[C@@H](C)O)[C@@H](C)O [sCT, salmon calcitonin-(1-32)] | produces in the human serum an antibody response | – |
| – | – | – | CC[C@H](C)[C@H](NC(=O)[C@H](C)NC(=O)[C@@H](NC(=O)[C@H](CCC(N)=O)NC(=O)[C@@H]1CCCN1C(=O)[C@H](Cc1ccccc1)NC(=O)[C@@H](NC(=O)[C@H](Cc1c[nH]cn1)NC(=O)[C@H](Cc1ccccc1)NC(=O)[C@H](CCCCN)NC(=O)[C@H](CC(N)=O)NC(=O)[C@H](Cc1ccccc1)NC(=O)[C@H](CC(=O)O)NC(=O)[C@H](CCC(N)=O)NC(=O)[C@@H](NC(=O)[C@H](Cc1ccc(O)cc1)NC(=O)[C@@H](NC(=O)CNC(=O)[C@H](CC(C)C)NC(=O)[C@H](CCSC)NC(=O)[C@@H]1CSSC[C@H](N)C(=O)NCC(=O)N[C@@H](CC(N)=O)C(=O)N[C@@H](CC(C)C)C(=O)N[C@@H](CO)C(=O)N[C@@H]([C@@H](C)O)C(=O)N1)[C@@H](C)O)[C@@H](C)O)[C@@H](C)O)[C@@H](C)O)C(=O)NCC(=O)N[C@H](C(=O)NCC(=O)N[C@@H](C)C(=O)N1CCC[C@H]1C(N)=O)C(C)C [hCT, human calcitonin-(1-32)] | – | > 10 µg |
